# Laboratory results as given in patent US20230340061A1, “PEPTIDES AND METHODS FOR THE TREATMENT OF MULTIPLE SCLEROSIS” (IMCYSE SA, priority 2020, published 2023).
# Assays:
# [1] = Oxidoreductase activity, fluorescent assay with FITC labelled peptides; type: biochemical; conditions: reduction of self-quenched FITC labelled peptides, fluorescence
# Source text: The peptides of the invention comprise an MHC class II T-cell epitope or NKT cell epitope of MOG with a potential to trigger an immune reaction, and a modified oxidoreductase motif. The reducing activity of the motif sequence in the peptide can be assayed for its ability to reduce a sulfhydryl group such as in the insulin solubility assay wherein the solubility of insulin is altered upon reduction, or with a fluorescence-labelled substrate such as insulin. An example of such assay uses a fluorescent peptide and is described in Tomazzolli et al. (2006) Anal. Biochem. 350, 105-112. Two peptides with a FITC label become self-quenching when they covalently attached to each other via a disulfide bridge. Upon reduction by a peptide in accordance with the present invention, the reduced individual peptides become fluorescent again.
# The oxidoreductase activity of the immunogenic peptides is determined using a fluorescent assay described in Tomazzolli et al. (2006) Anal. Biochem. 350, 105-112. Two peptides with a FITC label become self-quenching when they form a covalent disulfide bond. Upon reduction by a peptide in accordance with the present invention, the reduced individual FITC labelled peptides emit fluorescence again. The activity is expressed as the mean of duplicates. The results are expressed in Relative Fluorescent Units (RFU). […]
# [2] = test system: CD4+ T cells of patients with multiple sclerosis; test: Cytokine secretion in CD4+ T cell culture supernatants (LEGENDplex Human Th Panel); type: cell-based; conditions: for specific secretion of cytokine (IL-5): culture supernatant of MS017 (S15) CD4+ cell line, P4 vs C-WT epitope peptides
# Source text: (§1) Naïve CD4+ T cells were also purified from the CD14- PBMCs fraction by performing negative immunomagnetic separation with naïve CD4+ T cell isolation kit (Miltenyi Biotec, 130-094-131) according to the supplier recommendations. Naïve CD4+ T cells were co-cultured with autologous mDC or LCL in the presence of P2 and P4 peptides. The CD4+ T cells were re-stimulated periodically, about every 10-12 days.
# The ability of the peptides to induce cytokines secretion in CD4+ T cells culture supernatants was evaluated by flow cytometry analysis after overnight co-culture at resting state with autologous mDC without (no peptide) or with the peptides (P2 or P4). Supernatants were analyzed with the LEGENDplex Human Th Panel (13-plex) (BioLegend, 740721) according to the supplier recommendations.
# [3] = test system: Experimental Auto-Immune Encephalomyelitis (EAE); test: Therapeutic administration in MOG35-55-induced EAE; type: in vivo; conditions: 30 μg s.c. with alum, days 4, 9, 14, 19
# Description: The study used a total of 48 female C57BL/6 mice (Taconic Biosciences, 9 weeks old on Day 0). Mice were acclimated for 7 days prior to the first injection. Mice were assigned to groups in a balanced manner to achieve similar average weight across the groups at the start of the study.
# Dosing of all mice was performed once on each of the days indicated in Table 2, s.c., at a volume of 0.05 mL/site, each mouse receiving injection at two sites, for a total of 0.1 mL/mouse/dosing day. IMCY-0189 or P4 peptide total dose was 30 μg per administration.
# Lyophilized immunogenic peptide IMCY-0189 with the sequence […] (SEQ ID NO: 260), comprising an oxidoreductase motif HCPYC (SEQ ID NO: 24), a linker GW, a murine Myelin Oligodendrocyte Glycoprotein (MOG35-55) MHCII T cell epitope […] (SEQ ID NO: 261) and a flanking sequence HLYR (SEQ ID NO: 262) (Smart Bioscience) was solubilized immediately before use. Lyophilized IMCY-0189 was thawed at room temperature for 10 minutes, resuspended in Na Acetate buffer 50 mM NaCl 0.9% pH 5.4 and incubated at room temperature for 10 minutes. Reconstituted peptide was then mixed with Imject™ Alum Adjuvant before injection.
# Lyophilized immunogenic peptide P4 with the sequence […] (SEQ ID NO: 27), comprising an oxidoreductase motif KHCPYC (SEQ ID NO: 50), a linker VRY, a human Myelin Oligodendrocyte Glycoprotein (MOG201-212) MHCII T cell epitope […] (SEQ ID NO: 2) and a flanking sequence TLFKK (SEQ ID NO: 263) (Smart Bioscience) was solubilized immediately before use. Lyophilized P4 was thawed at room temperature for 10 minutes, resuspended in Na Acetate buffer 50 mM NaCl 0.9% pH 5.4 and incubated at room temperature for 10 minutes. Reconstituted peptide was then mixed with Imject™ Alum Adjuvant before injection.
# EAE was induced in all mice as follows: • Day 0, Hour 0—Immunization with a peptide corresponding to the amino acids 35-55 of MOG (MOG35-55)/CFA • Day 0, Hour 2—Injection of pertussis toxin • Day 1, Hour 0—2nd injection of pertussis toxin (24 hours after initial immunization).
# Mice were injected subcutaneously at two sites in the back with the emulsion component (containing MOG35-55) of Hooke Kit™ MOG35-55/CFA Emulsion PTX, catalog number EK-2110 (lot #131, Hooke Laboratories, Lawrence MA). One site of injection was in the area of upper back, approximately 1 cm caudal of the neck line. The second site was in the area of lower back, approximately 2 cm cranial of the base of the tail. The injection volume was 0.1 mL at each site. Each mouse received 200 μg of MOG35-55.
# Within 2 hours of the injection of emulsion, and then again 24 hours after the injection of emulsion, the pertussis toxin component of the kit was administered intraperitoneally. The pertussis toxin (lot #1008, Hooke Laboratories) was administered at 90 ng/dose for both injections and the volume of each injection was 0.1 mL.
# Animals were scored daily starting from Day 7 to the end of the study. Scoring was performed blind, by a person unaware of both treatment and of previous scores for each mouse. In-between scores were assigned when the clinical signs fell between two above defined scores.
# On Day 28, blood was collected from all mice into gel clot activator tubes and allowed to clot at room temperature for ˜30 minutes. Blood is then centrifuged at ˜10000 g for 5 minutes. Serum was transferred into Eppendorf tubes and stored at −80° C. until shipment to Quanterix™. Serum Neurofilament light (NF-L) protein levels were quantified using Simoa® NF-light Advantage kit, a digital immunoassay for the quantitative determination of NF-L in serum, plasma and CSF. The used antibodies (Uman Diagnostics, Umea Sweden) also cross react with murine, bovine and macaque NF-L epitopes and as such, this assay can be used for research with these species. All samples were tested in duplicate at a dilution factor of 40×. […]
# [4] = test system: Experimental Auto-Immune Encephalomyelitis (EAE); test: Prophylactic administration in adoptive-transfer EAE; type: in vivo, mice; conditions: 100 μg s.c. with alum, days −21, −14, −7, +2, +9
# Description: EAE was induced in recipient mice by immunizing donor B6.SJL mice with MOG35-55/CFA, and then, 11 days later, by taking their spleens and restimulating them in culture with MOG35-55 peptide for 3 days. Those cells, now fully encephalitogenic, were injected on Day 0 into recipient groups of mice, which developed EAE.
# B6.SJL donor mice were acclimated for 13 days before the start of the study and were 9 weeks old at the time of immunization. Donor mice were used to generate encephalitogenic cells as follows: • Day −14: Immunization with MOG35-55/CFA. • Day −3: Spleen harvest. Mice were euthanized and spleens were harvested, pooled and cell suspension prepared. Cell suspension, at 4 to 5 million cells/mL in T150 flasks, were set up in cultures in the presence of MOG35-55 peptide (20 μg/mL), IL-12 ([…]) and anti-IFNγ (7 μg/mL) for 3 days to generate encephalitogenic T cells. • Day 0: Cell collection and transfer. Cells were collected and spun down, resuspended in RPM11640 (no FCS), counted, and injected into recipient mice at 10 million cells per mouse.
# Recipient mice were acclimated for 6 days prior to the first injection and were 6 weeks old when treatment started (on Day −21). Mice were assigned to groups in a balanced manner, to achieve similar average weight across the groups at the start of the study.
# Dosing of all mice was performed once on each of the days indicated in Table 4, s.c., at a volume of 0.05 mL/site, each mouse receiving injection at two sites, for a total of 0.1 mL/mouse/dosing day, corresponding to 100 μg of peptide.
# For Vehicle treatment, Imject™ Alum solution was prepared at each dosing day. IMCY-0189 has the sequence described in example 6. Lyophilized IMCY-0189 was thawed at room temperature for 10 minutes, resuspended in Na Acetate buffer 50 mM pH 5.4 and incubated at room temperature for 5 minutes. Reconstituted peptide was then mixed with Imject™ Alum Adjuvant before injection.
# At termination, blood was collected from all mice into tubes containing K2EDTA and mixed gently. Blood was then centrifuged at ˜10000 g for 5 minutes. Plasma was transferred into Eppendorf tubes and stored at −80° C. until shipment to Quanterix™. Plasma Neurofilament light (NF-L) protein levels were quantified using Simoa© NF-light Advantage kit as described in example 6.
# EAE scoring, terminal collection, histology analyses and statistical analyses were performed as described in example 6.
# [5] = test system: CD4+ T cells of patients with multiple sclerosis; test: Generation of antigen specific CD4+ T cells, CD154 (CD40L) expression by flow cytometry; type: cell-based, human
# Description: PBMCs were isolated from blood samples of patients with multiple sclerosis treated by dimethyl fumarate (DMF) on Lymphoprep density gradients.
# CD14+ monocytes were isolated from these PBMCs by performing positive immunomagnetic separation with CD14 microbeads (Miltenyi Biotec, 130-050-201) according to the supplier recommendations. CD14+ monocytes were cultured for six days and maturated to generate autologous dendritic cells (mDC). CD19+ B cells were isolated from the CD14- PBMCs fraction by performing positive immunomagnetic separation with CD19 microbeads (Miltenyi Biotec, 130-050-301) according to the supplier recommendations. CD19+ B cells were cultured and immortalized with EBV to generate autologous lymphoblastoid cell lines (LCL).
# as §1
# The ability of the peptides to generate antigen specific CD4+ T cells was evaluated by flow cytometry analysis of the TCR induced surface activation marker CD154 (CD40L) expression after overnight co-culture at resting state with autologous LCL without (no peptide) or with the peptides (P2 or P4). The surface expression of the lytic marker Fas ligand (CD178) was also evaluated by flow cytometry analysis after overnight co-culture at resting state with autologous LCL without (no peptide) or with the peptide (P4).
# [6] = biological target: T1, soluble HLA-DRB1*04:01 human MHC II protein (human); test: soluble-phase competition vs biotin-tagged control peptide, Eu3+-streptavidin fluorescence (FIG. 3)
# T1 construct: Soluble protein purchased from the Benaroya Research Institute; also called HLA-DR4; DR4
# Description: To test the binding of the immunogenic peptides to MHCII molecules, a soluble phase competition assay is performed. […] As binding approaches its equilibrium (18h), biotin-labelled peptide/MHC II complexes are captured, separated from unbound reagents, and quantitatively detected by time-resolved fluorescence (Eu³⁺ streptavidin, Perkin Elmer, Brussels, Belgium). […] Data are processed and plotted to ascertain dose-dependent binding properties of test peptides. All the tests are performed in triplicates.
# [7] = biological target: T2, soluble HLA-DRB1*03:01 human MHC II protein (human); test: soluble-phase competition vs biotin-labelled control peptide, Eu3+-streptavidin time-resolved fluorescence
# T2 construct: Soluble protein purchased from the Benaroya Research Institute; also called HLA-DR3; DR3
molecule,measurement,setting,value
HCHGCVRYFLRVPCWKI [P6],oxidoreductase activity,[1],displayed oxidoreductase activity
"QYRLRGKLRAEIENLHRTFDPHFLRVPCWKITLFVIVPVLGP [long C-WT, reference compound]",specific secretion of cytokine (IL-5),[2],specific secretion
HCPYCGWYRSPFSRVVHLYR [IMCY-0189],mortality,[3]; to day 28,No mice died
same,AUC (area under the curve) of EAE scores,[3]; vs Saline group,statistically significant reduced
same,MMS (mean maximal score),[3]; vs Saline group,statistically significant reduced
same,disease onset,[3]; vs Saline group,postponed
same,level of demyelination (anti-MBP stained spinal cord sections),[3]; vs Saline group,statistically significantly reduced level
same,"level of inflammation (inflammatory foci, H&E stained spinal cord sections)",[3]; vs Saline group,statistically significantly reduced level
same,serum NF-L levels,"[3]; Day 28, vs Saline group",statistically significant reduced
same,end score,"[3]; EAE score 0-5, vs Saline group",reduced
same,mortality,[4],No mice died
same,AUC (area under the curve) of EAE scores,[4]; vs Alum group,statistically significantly improved
same,MMS (mean maximal score),[4]; vs Alum group,statistically significantly improved
same,disease onset,[4]; vs Alum group,statistically significantly improved
same,end score,[4]; vs Alum group,statistically significantly improved
same,level of demyelination (anti-MBP stained spinal cord sections),[4]; vs Alum group,statistically significantly reduced level
same,"level of inflammation (inflammatory foci, H&E stained spinal cord sections)",[4]; vs Alum group,statistically significantly reduced level
same,plasma NF-L levels,"[4]; at termination, vs Alum group",statistically significantly reduced
HCPYCVRYFLRVPSWKITLF [P2],generation of peptide-specific CD4+ T cell lines from MS patients,[5]; naive CD4+ T cells co-cultured with autologous mDC or LCL in presence of peptide,able to generate P2-specific CD4+ T cell lines from four different MS patients
same,frequency of effector cells (CD3+CD4+CD154+),"[5]; patients' CD4+ cell lines, overnight co-culture with autologous LCL with peptide vs no peptide",high frequency
same,specific secretion of cytokines (IL-5 and IL-13),[2]; culture supernatant of MS026 CD4+ cell line (S11),specific secretion
HCPYCGG-FLRVPCWKI [P7],oxidoreductase activity,[1],displayed oxidoreductase activity
"DPHFLRVPCWKITLFKK [short C-WT, reference compound]",specific induction of effector cells (CD3+CD4+CD154+),"[5]; P4-specific CD4+ cell lines of patients MS017 (S14) and MS026 (S13), overnight co-culture",specific induction
same,specific secretion of cytokine (IL-5),[2],specific secretion
HCPYCVRYFLRVPSWKITLF (Synthetic) [P2 peptide HCPYCVRYFLRVPSWKITLF],binding result,[6],binds
same,binding result,[7],binds
